Results as given in a melting point compilation (Tetko et al.; mined from patent text by program, amines drawn as free bases though some values may be those of a salt).

Row | melting point | SMILES
1 | 202 °C | CCCC(C1CCCCC1)n1cncc1C(=O)O (centres undefined)
2 | 162 to 166 °C | O=C(NO)c1ccc2c(c1)CN(C(=O)c1ccc3ccccc3n1)C2
3 | 137 °C | CC(C)(C)[Si](C)(C)Oc1ccc2c(c1)Oc1ccccc1C2=C1C2CC3CC(C2)CC1C3
4 | 305 to 310 °C | COc1cc2c(=O)c(C#N)c[nH]c2cc1NC(C)=O
5 | 147 to 148 °C | COC(=O)C=C(C)C=CC1(O)C(C)=CC(=O)c2ccccc21 (centres undefined)
6 | 110 to 111 °C | CC[Si](CC)(CC)Oc1cccc2ncc3c(c12)CCCC3
7 | 171 °C | Fc1ccc(Cn2c(NC3CCN(CCNc4nnnn4-c4ccccc4)CC3)nc3ccccc32)cc1
8 | 201 to 205 °C | CN1c2c(occ(CO)c2=O)-c2ccccc2S1(=O)=O
9 | 196 to 203 °C | Nc1cc(Cl)c(Cl)cc1C(=O)O
10 | 129 °C | CC(C)(C)Sc1cnn(-c2c(Cl)cc(C(F)(F)F)cc2Cl)c1N
11 | 56 to 58 °C | CS(=O)(=O)Oc1cccnc1
12 | 93 to 95 °C | CC(=O)N1c2ccc(F)cc2CC1C#N (centres undefined)
13 | 212 to 214 °C | CC(=O)NCC1CN(c2ccc(N3CCN(c4nnc(C)o4)CC3)c(F)c2)C(=O)O1 (centres undefined)
14 | 156 to 158 °C | Cc1ccc(Oc2ccc(S(=O)(=O)C[C@H]([C@H]3COC(C)(C)O3)N(O)C=O)cc2)cc1
15 | 242 °C | Oc1ncnc2c1c(-c1ccco1)nn2Cc1ccccc1
16 | 121 to 123 °C | C#CCNc1ccc([N+](=O)[O-])cc1C
17 | 147 to 148 °C | CC(C)c1nc(CN2C(=O)C3(COc4cc5c(cc43)OCO5)c3c(Cl)cccc32)cs1 (centres undefined)
18 | 81 to 82 °C | CCC(Cl)CCC(=O)c1cc(OC)c(OC)cc1F (centres undefined)
19 | 124 to 126 °C | CCCCOc1ccc(S(=O)(=O)N2CCN(C)CC2)cc1-c1nc2cc3nc[nH]c3cc2c(=O)[nH]1

Row | melting point | SMILES
20 | 169 to 171 °C | Cc1ccc(N2N=C3c4cc(C(=O)CCl)sc4CCC3CC2=O)cc1 (centres undefined)
21 | 207 to 210 °C | COCCCn1nnnc1-c1cc(-c2ccccc2C(F)(F)F)c(O)cc1O
22 | 81 to 83 °C | CC1SC(=O)C=NC1=O (centres undefined)
23 | 106 to 109 °C | Cc1cccc(C)c1N(CC(C)N)S(C)(=O)=O (centres undefined)
24 | 306 to 307 °C | CC(C)(C(=O)O)c1ccc(C(=O)Nc2cn3cc(-c4cn[nH]c4)ccc3n2)cc1
25 | 178 °C | CCOC(=O)CC1=CC2C(CCC3(C)C(O)CCC23)c2ccc(O)cc21 (centres undefined)
26 | 188 to 189 °C | Cc1nc2ccccc2n2cnc(-c3nc(C4CC4)no3)c12
27 | 210 °C | Cc1ccc(C(=O)Nc2ccc(C[C@H](NC(=O)Nc3ccccc3S(=O)(=O)c3ccccc3)C(=O)O)cc2)c(Cl)n1
28 | 123 to 124 °C | NC(=O)C(OCc1ccc(-c2ccc(Cl)cc2)cc1)(C(F)(F)F)C(F)(F)F
29 | 162 to 164 °C | COc1ccc(Cc2nc3cc(Cl)cc(CC(N)=O)c3o2)cc1OC1CCCC1
30 | 96 to 98 °C | N=C(NCl)c1ccsc1
31 | 124 °C | CCOC(=O)C1=C(C)NN=C(CC)C1c1ccccc1C(F)(F)F (centres undefined)
32 | 206 to 207 °C | Nc1nc(-c2ccco2)c(C(=O)c2ccccn2)s1
33 | 125 °C | CN(C)C(=O)C1=C(C(=O)Nc2ccc(Cl)cc2)CCCC1
34 | 267 to 271 °C | Cc1ncc2cc(-c3c(C)cccc3Cl)c(N)nc2n1
35 | 168 to 169 °C | CCOC(=O)C(=O)Nc1ccc(Br)cc1[N+](=O)[O-]
36 | 102 to 103 °C | CCN1C(=O)c2cccnc2N(CC)c2ncccc21
37 | 190 to 194 °C | O=C(Nc1ccc(Cl)cc1)C1=C(N2CCCC2)CS(=O)(=O)N(Cc2ccc(Cl)cc2)c2ccccc21

The next lines start with the compound.

Row | SMILES | melting point
38 | CCCCOc1csc(C)c1C(=O)O | 66 to 68 °C
39 | CCOC(=O)Cn1cc(F)cnc1=O | 121 °C
40 | COc1cc(CC(=O)Nc2nn(-c3ccccc3)cc2C=O)ccc1OCc1nc(-c2ccco2)oc1C | 190 to 191 °C
41 | CCCC1=NN(c2ccc(C(N)=O)cc2)C(=O)C1=CNc1ccccc1CC | 170 °C
42 | Cc1oc(-c2ccccc2)nc1COc1cccc(CON2C(=O)c3ccccc3C2=O)c1 | 146 to 147 °C
43 | CC(=O)c1ccc2c(c1)ncn2-c1cccc(-n2ccnc2)c1 | 205 to 206 °C
44 | Cc1ccc2nc(NC(=O)c3ccc(C(C)(C)C)cc3)cn2c1 | 259 to 260 °C
45 | CC(=O)c1cc2nc(SCc3nccc4c3OCO4)[nH]c2cc1C | 141 to 143 °C
46 | COC(=O)c1ccccc1NC(=O)N(C)C | 85 to 90 °C
47 | O=C1COC2(CCN(CCCC(=O)c3ccc(F)cc3)CC2)CN1 | 117 to 118 °C
48 | COc1ccc(-c2sc3cnccc3c2OC(C)=O)cc1 | 141 to 142 °C
49 | CN(C)c1ccc(C2(c3ccc(N(C)C)cc3Cl)OC(=O)c3cc(N(C)C)ccc32)cc1 (centres undefined) | 233 to 234 °C
50 | COC(=O)C1=C(N)CC2CC[C@H]1N2C | 95 to 98 °C
51 | CC(C)(C)c1cc(C(=O)c2cccs2)cc(CN2CCOCC2)c1O | 148 °C
52 | COc1cc2sc(C(=N)NO)cc2c(F)c1OC | 186 to 190 °C
53 | O=C(O)c1ccc(CCCC2SCC(=O)N2CCC2(O)CCCCCC2)cc1 (centres undefined) | 146 to 148 °C
54 | Cc1ccc(NC(=O)c2cc(Cl)ccc2NCC2CCN(C3CCOCC3)CC2)nc1 | 166 to 168 °C
55 | COC(=O)[C@@H]1[C@@H](Cc2ccccc2)C[C@@H]2CC[C@H]1N2C | 79 to 80 °C
56 | CCC1(CC)C(=O)N(C(C)(C)C)CC(C)(C)N1OC(C(=O)O)c1ccccc1 (centres undefined) | 125 to 133 °C
57 | Cc1nc(S(=O)(=O)Cc2ccccc2)nc(C)c1Br | 138 to 139 °C
58 | O=C(NCCCn1cncn1)Nc1ccc(Cl)cc1 | 137 to 139 °C

Row | SMILES | melting point
59 | Oc1cccc(-c2noc3cc(F)ccc23)c1 | 144 to 145 °C
60 | COC(=O)c1cn2c(n1)COc1ccccc1-2 | 133 to 134 °C
61 | Nc1nc(NS(=O)(=O)c2ccccc2[N+](=O)[O-])n[nH]1 | 255 to 256 °C
62 | CC(=O)N1N=C(c2ccncc2)OC1c1ccc(Cl)c(Cl)c1 (centres undefined) | 101 to 104 °C
63 | COC(=O)c1nc(-c2ccc(Cl)cc2F)nc(N)c1Br | 186 to 188 °C
64 | Nc1cc(-c2ncnc(C(F)F)c2Cl)c(F)cc1Cl | 106 to 108 °C
65 | CN1C(=O)c2cnc(-c3ccccc3)nc2Nc2ccccc21 | 227 °C
66 | C=CC(=O)OC(C#N)Cc1cccc(Cl)c1 (centres undefined) | 100 to 101 °C
67 | Cc1nnc2n1-c1ccc(C#CCn3cnc4ccccc43)cc1C(c1ccccc1Cl)=NC2 | 165 to 168 °C
68 | N#CC(Nc1ccc2ccccc2c1)c1c(Cl)cccc1Cl (centres undefined) | 94.8 °C
69 | O=C(O)c1cc2cc(Cl)ccc2nc1NC1(C(=O)O)CCc2ccccc21 (centres undefined) | 141 to 144 °C
70 | CC(C)=C1C(=O)N(c2cc(F)c(C#N)cc2F)C(=O)C1=C(C)C | 144 °C
71 | CCCCC(NS(=O)(=O)c1ccc(Cl)cc1)C(=S)Nc1ccc(CC(=O)OCC)cc1 (racemic) | 70 to 73 °C
72 | NS(=O)(=O)c1cnc(-c2cn(-c3cc(C(F)(F)F)cc(-c4ccc(C(F)(F)F)cc4)n3)cn2)s1 | > 266 °C
73 | CCCN1CC(C)CC2c3cccc4[nH]c(SC)c(c34)CC21 (centres undefined) | 216 to 219 °C
74 | CCN(CC)C(=O)c1ccc(CCCCOCCCCCCN(Cc2ccccc2)CC(O)c2ccc(O)c3[nH]c(=O)ccc23)cc1 (centres undefined) | 101 to 103 °C
75 | Cc1cccc(-c2nc3cccnn3c2-c2ccnc(N)n2)c1 | 250 to 251 °C
76 | CNC(=O)c1cc2c(Oc3ccc(C(=O)NCCN4CCOCC4)cc3)cncc2s1 | 226 to 228 °C
77 | C=C(C)OC(=O)N1c2ccc(C)cc2NC(=O)C1(C)C | 185 °C
78 | CNC(=O)Nc1ccc(Oc2ccc3c(c2)CCC(C)(OC)O3)cc1 (centres undefined) | 140 °C
79 | COC(=O)N[C@H](C(=O)NN(Cc1ccc(-c2cncs2)cc1)C[C@H](O)[C@H](Cc1ccccc1)NC(=O)[C@@H](NC(=O)OC)C(C)(C)C)C(C)C | 134 to 135 °C

Row | SMILES | melting point
80 | Cn1nc(-c2ccc3c(c2)OCO3)c(-c2ccncc2)c1NC(=O)Cc1ccccc1 | 128 to 132 °C
81 | N#CN=c1ccccn1C1=CC(CF)(CF)Oc2ccc([N+](=O)[O-])cc21 | 238 to 240 °C
82 | CC(C)(C)NC(=O)[C@@H]1[C@H](O)CCN1C(=O)[C@@H](O)[C@H](Cc1ccccc1)NC(=O)[C@H](CC(N)=O)NC(=O)OCc1ccccc1 | 109 to 112 °C
83 | CCn1ncc2c(NCc3cccnc3)c3ccccc3nc21 | 282 to 284 °C
84 | CC(=O)NC[C@H]1CN(c2ccc(N3CCC(n4ncnn4)CC3)c(F)c2)C(=O)O1 | 186 to 188 °C
85 | CN(C)c1cc(C(OC(=O)C(Cl)(Cl)Cl)c2ccccc2)c([N+](=O)[O-])cc1[N+](=O)[O-] (centres undefined) | 91 to 92 °C
86 | CCCCCCCCCCNC(=O)c1cc(C(=O)NCCCCCCCCCC)cc(N(CCCC(=O)OCC)CCCC(=O)OCC)c1 | 75 to 77 °C
87 | Cc1[nH]c(C(=O)N2CCC(C(=O)NCC3CCCCC3)CC2)c(C)c1-c1nc2ccc(C(=O)c3ccccc3)cc2[nH]1 | 274 to 276 °C
88 | CCOc1ccc(OC)c2c1CCC([N+](=O)[O-])=C2 | 90 to 92 °C
89 | CCNC(=N)NC(=O)Cc1ccc(Cl)cc1 | 146 to 147 °C
90 | Cc1cc(Cl)ccc1OCc1nn(C)c(=O)o1 | 108 to 110 °C
91 | CC(=O)N1CCN(C(=O)c2cc3ccnc(Cl)c3[nH]2)CC1 | 179 to 184 °C
92 | COc1cccc(NC(=O)NC2N=C(c3ccccc3)c3cccc(C)c3N(C)C2=O)c1 (centres undefined) | 215 to 217 °C
93 | CCOC(=O)C(=CN(CC)c1ccc(C=O)s1)C(=O)OCC | 45 °C
94 | FC1(c2cn(-c3ccc(Br)cc3)nn2)CN2CCC1CC2 (centres undefined) | 127 °C
95 | Cc1c(Cc2cccc(C(F)(F)F)c2)sc2c(-c3cccc(C(=O)NCCOC(C)C)c3)cccc12 | 121 to 122 °C
96 | COc1cc(Nc2c(C#N)cnc3cc4cc(OC)c(OCCN5CCC(O)CC5)cc4cc23)c(Cl)cc1Cl | 150 to 160 °C
97 | COC(=O)CCc1ccc(-n2c(C)nn(-c3ccc(C#N)cc3)c2=O)cc1 | 163 to 164 °C
98 | CC(C)n1nc(-c2sc(NC(=O)Cn3ccnc3)nc2-c2ccccc2)ccc1=O | 160 to 161 °C
99 | CN1[C@H]2CC[C@@H]1[C@@H](CO)[C@@H](c1ccc(F)cc1)C2 | 79 to 80 °C
